The text below walks through data of paper PMC7838189, “Natural podophyllotoxin analog 4DPG attenuates EMT and colorectal cancer progression via activation of checkpoint kinase 2” (Cell Death Discovery, 2021).

The subject of data set [1] is HCT-116, SW-620, and HT-29 cells. In words: Western blotting of p-Vimentin/Vimentin after transient 5-FU treatment. Conditions: 5-FU 1 µM (sub-toxic), 24 h; range over HCT-116, SW-620, HT-29 cells; densitometry. Format: cell-based. The text has this: Vimentin belongs to the family of intermediate filament proteins that are known to function in maintaining the shape as well as the integrity of the normal mesenchymal cells[33],[34]. However, it has been established to regulate the cell shape and migration capability during EMT, a phenomenon critical to metastasis of cancer cells[35],[36]. To investigate any plausible contribution of Vimentin to 5-FU resistance in CRC, we treated a panel of three epithelial colorectal carcinoma cell lines (HCT-116, SW-620, and HT-29) with increasing concentrations of the said drug, transiently (24 h). Western blots were generated for the whole-cell lysates obtained from the above set of experiments. Since the phosphorylated Vimentin is an important signal transducer during the EMT process, we analyzed p-Vimentin (ser38) as well as total Vimentin levels in these lysates.
Fig. 1 Vimentin activation and the onset of EMT in CRC cells transiently exposed to 5-FU, as well as in 5-FU-resistant population. […] F Quantification of the number of invaded cells per field from the above invasion assay experiment. n = 3, error bars: mean ± SD; ***P < 0.001. […]
We adhered to the previously published protocol for western blotting. […] Bradford assay was performed to quantify the protein concentration. […]

Data set [2] has as its system HCT-116/5-FU-R cells. The data set can be described thus: Acquired 5-FU resistance (MTT cytotoxicity assay). The format is cell-based. The note with it: cells selected with increasing 5-FU for at least 20 weeks. Here is the method:
(§1) Previously described procedure by Shukla et al. was followed with minor modifications. In brief, wild-type CRC cells (HCT-116, SW-620, and HT-29) were cultured with increasing concentrations of 5-FU for at least 20 weeks. The acquired drug resistance was tested periodically by determining the half maximal inhibitory concentration (IC50) of 5-FU through MTT cytotoxicity assays.
(§2) The experiments were performed using the wild-type and 5-FU-RCRC cells following our standardized protocols, as described previously[56],[57].

Data set [3] concerns HT-29/5-FU-R cells. The data set can be described thus: Acquired 5-FU resistance (MTT cytotoxicity assay). The format is cell-based. Conditions: cells selected with increasing 5-FU for at least 20 weeks. The method, then: as §1, §2
Data set [4] has as its system SW-620/5-FU-R cells. In words: Acquired 5-FU resistance (MTT cytotoxicity assay). The format is cell-based. The note with it: cells selected with increasing 5-FU for at least 20 weeks. Here is the method: as §1, §2
A general note: Formazan colour is commonly taken as a measure of viable cells.

For data set [5], the system named is orthotopic rat colorectal carcinoma. The note with it: 25 mg/kg thrice a week for 3 weeks. The text has this:
To examine the antitumor and anti-metastatic efficacy of 4DPG in vivo, we employed a carcinogen-induced orthotopic rat colorectal carcinoma model. […] The schematic representation briefly describes the steps involved in the generation of orthotopic colorectal tumors along with the treatment strategy and further analysis (details in “Materials and methods”). The animals were euthanized at the end of the experiment and evaluated for tumor and metastatic burden (Fig. 4A). […] To validate whether our in vitro observations on mechanistic inhibition of EMT and invasion by 4DPG hold true in vivo, we performed immunohistochemical analysis of the tumor tissues acquired from the saline and 4DPG-treated animal groups.
A Model depicting the procedure adopted for generating the carcinogen-induced orthotopic rat CRC model, treatment strategies of 4DPG, evaluation of tumor burden, and further biochemical analysis. B Representative images of large bowel showing the colorectal tumor growth in saline, 5-FU (25 mg/kg), and 4DPG (25 mg/kg) treated groups of animals. C, D Quantification of tumor volume and number of polyps per rat in above groups of animals. n = 6 rats per group, error bars: mean ± SD; *P < 0.05, **P < 0.01, ***P < 0.001. E Representative images of the lungs dissected from the above groups of animals showing metastatic tumor burden. Orange arrows indicating bumps of secondary tumors over each lobe of lungs. F, G Quantification of a number of macroscopic secondary tumors over the lung tissues and lung weight in the above groups of animals. n = 6 rats per group, error bars, mean ± SD; **P < 0.01, ***P < 0.001. […] Scale bar: 50 µm. I Western blots depicting expression of p-Chk2 (Thr68), Chk2, p53, p-Vimentin (Ser38), and Vimentin in tumor tissues obtained from saline- and 4DPG-treated groups of animals. β-Actin expression was taken as endogenous loading control. J Densitometry analysis of the above western blot bands portraying relative protein expression of the markers presented. n = 3, error bars: mean ± SD; **P < 0.01, ***P < 0.001.
Animal studies were performed following the guidelines approved by Institutional Animal Ethics Committee (IAEC No. 51/02/15) of CSIR-Indian Institute of Integrative Medicine, Jammu, India. The experiment was performed according to our standardized protocol described previously with necessary modifications. Five-weeks-old healthy male Wistar rats (body weight 150–200 g) were maintained in aseptic condition with free access to food and water. Animals were randomized into three groups, with six animals per group. All the rats received intrarectal instillation of 0.5 mL of freshly prepared 0.4% aqueous solution of N-methyl-N-nitrosourea (MNU) thrice a week for 3 weeks, for the orthotopic induction of colorectal tumors. The solution was injected using sterile syringe with attached 8-cm long rubber catheter tube inserted two-thirds into the colon lumen through anal orifice, as described previously. The animals were kept under continuous monitoring, and the body weight was measured once per week. Following 22 weeks after the initiation of MNU administration, treatment regimens were started by administering 5-FU (25 mg/kg), and 4DPG (25 mg/kg) thrice a week for 3 weeks. The control and treatment groups of animals were dosed separately by three independent investigators and the outcomes were assessed by a fourth investigator blind about the dosing process and treatment regimen.

The test system of data set [6] is SW-620/5-FU-R cells. The data set can be described thus: Immunocytochemistry of Vimentin. Conditions: PV1019 alone, 48 h. Format: cell-based. The text has this:
4DPG, a podophyllotoxin class of natural product anticancer compound (Supplementary Fig. S2A) has been recently described by our research group for its potent antitumor and anti-metastatic properties against aggressive cancers[31],[32]. Further, 4DPG augments phosphorylation and activation of Chk2 (Thr68) leading to suppression of EMT and invasiveness of p53-defective cancer cells. To investigate the effect of 4DPG on phosphorylation and expression levels of Chk2 in HCT-116/5-FU-R, SW-620/5-FU-R, and HT-29/5-FU-R cells, we treated these cells for 48 h with increasing concentrations of the compound, and whole-cell lysates were subjected to western blotting analysis. […] To determine the effect of 4DPG on the invasion abilities of these 5-FU-R cells, we performed in situ fluorescent gelatin degradation assay following our pre-standardized protocol[31],[37]. In physiological conditions, this assay mimics the extracellular matrix degradation by aggressive tumor cells undergoing invasion–metastasis process.
(§3) To examine whether 4DPG-mediated repression of Vimentin and invasiveness is a Chk2-dependent process, we performed genetic silencing of endogenous Chk2 in the 5-FU-R cells using target-specific SiRNAs.
(§4) Fig. 3 Chk2-dependent role of 4DPG in modulating p53 and repressing Vimentin expression in 5-FU-R cells. A Immunocytochemistry results showing the Vimentin expression level in SW-620/5-FU-R cells treated/transfected with scramble, SiChk2, scramble plus 4DPG, SiChk2 plus 4DPG, vehicle, PV1019, 4DPG, and PV1019 plus 4DPG for 48 h. Scale bars: 50 µm. […] C Matrigel invasion assay results showing invaded HCT-116/5-FU-R and SW-620/5-FU-R cells following 48 h of transient transfection with GFP and GFP-Chk2 plasmid construct. Scale bars: 50 µm. D Quantification of the number of invaded cells per field from the above experimental conditions. n = 3, error bars, mean ± SD; *P < 0.05, ***P < 0.001. E Immunocytochemistry results displaying Vimentin expression levels in HCT-116/5-FU-R and SW-620/5-FU-R cells after 48 h of transient transfection with pCDNA3 and/or HA-Chk2 plasmid construct. Scale bars: 50 µm. F Immunoprecipitation with Vimentin or p53 followed by western blotting analysis of p53 in SW-620/5-FU-R cells treated with vehicle and/or 4DPG (300 nM) for 48 h. G Cytosolic (left panel) and nuclear (right panel) extracts of SW-620/5-FU-R cells treated with vehicle and/or 4DPG (300 nM) for 48 h showing protein expression of Vimentin and p53. Tubulin and lamin expression was considered as endogenous loading controls for cytosolic and nuclear fractions, respectively.
We followed the standard protocol with some modifications for immunocytochemistry[56],[58]. In brief, cells, at a density of 4 × 10^5 cells/well, were seeded over the sterile coverslips placed in six-well plates. Following the respective treatment, cells were washed thrice with PBS. Next, the cells were fixed with 4% paraformaldehyde (pH = 7.4) for 15 min, permeabilized with 0.3% Triton X-100 for 10 min, and then blocked with 1% goat serum for 30 min. Consequently, the cells were incubated with anti-Vimentin antibody overnight at 4 °C, at a dilution of 1:100, followed by washing with PBST and further incubation with secondary anti-rabbit Alexa Fluor 488 (1:750 dilution). After subsequent washing and mounting, the images were captured at ×20 magnification under Floid Cell Imaging Station (Invitrogen).

The subject of data set [7] is HCT-116/5-FU-R cells. The data set can be described thus: Matrigel invasion assay. The format is cell-based. The note with it: PV1019-treated, 48 h.
Description: as §3
as §4, with “G Cytosolic (left panel) and nuclear (right panel) extracts of SW-620/5-FU-R cells treated with vehicle and/or 4DPG (300 nM) for 48 h showing protein expression of Vimentin and p53. Tubulin and lamin expression was considered as endogenous loading controls for cytosolic and nuclear fractions, respectively.” left out

The structures appear in SMILES notation.

With `O=c1[nH]cc(F)c(=O)[nH]1` [5-FU, 5-fluorouracil], the “boost in p-Vimentin (ser38)” value in data set [1] was 2–7.8 fold. Also, the “increase in Vimentin expression level” value in data set [1] is on record as 2.1–8.5 fold. Moreover, the results for the “acquired resistance up to (5-FU concentration)” value in data set [2], in data set [3] and in data set [4] were “up to 50 µM”, ≤ 45 µM and ≤ 60 µM, respectively. The lung metastases result in data set [5] is “could not restrict the metastatic spread”. Also, in data set [5] (control group 16), the “average number of polyps” value was 8. This molecule returned a mean tumor volume in data set [5] (saline control 820.6 mm^3) of 231 mm^3.

As for `CC(=NNC(=N)N)c1ccc(NC(=O)c2cc3cccc([N+](=O)[O-])c3[nH]2)cc1` [PV1019, 7-nitro-1H-indole-2-carboxylic acid {4-[1-(guanidinohydrazone)-ethyl]-phenyl}-amide, reference compound], the “Vimentin level (immunocytochemistry)” value in data set [6] is reported as “increased Vimentin level”. Further, the “number of invaded cells” value in data set [7] was “remarkable increase”.
